# Columns and labels:
# [1] = test system: GLXMAW (Soybean, Williams); experiment: Postemergence herbicidal evaluation; type: in vivo, Glycine max, (L.) Merr. cv Williams; conditions: postemergence
# Procedure, shortened: (§1)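 Two-week-old seedlings sprayed with compound in 50/50 acetone/water plus 0.5% TWEEN 20, at about 0.0156 to 0.500 kg/ha, nozzle at 40 psi. Kept in greenhouse; rated visually 4-5 weeks after treatment on a 0-9 scale versus control, repeat tests averaged.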
# CYPIR (Rice Flatsedge) = experiment: Postemergence weed control under flooded paddy conditions; type: in vivo, Cyperus iria; conditions: postemergence weeds, rated 3 to 4 weeks after treatment
# Procedure, shortened: (§2)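 Injury ratings (0–9 scale covering stand, vigor, malformation, size, chlorosis and overall appearance versus control) were made three to four weeks after treatment. Test material, about 0.0313 to 0.500 kg/ha a.i. in 50/50 v/v aqueous/acetone, was added to flood water 1.5 to 3 cm deep over 3 to 5 cm weeds and 1.5 to 2.5 leaf rice.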
# SETVI (Foxtail, Green) [2] = experiment: Postemergence herbicidal evaluation; type: in vivo, Setaria viridis; conditions: postemergence
# Procedure, shortened: as §1
# ECHCG (Barnyardgrass) = experiment: Postemergence herbicidal evaluation; type: in vivo, Echinochloa crus-galli; conditions: postemergence
# Procedure, shortened: as §1
# ABUTH (Velvetleaf) [3] = experiment: Postemergence herbicidal evaluation; type: in vivo, Abutilon theophrasti; conditions: postemergence
# Procedure, shortened: as §1
# ABUTH (Velvetleaf) [4] = experiment: Preemergence herbicidal evaluation; type: in vivo, Abutilon theophrasti; conditions: rated 4-5 weeks after treatment; for ABUTH rating: preemergence, 0-9 scale
# Procedure, shortened: (§3)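 Steps: mix seeds into potting soil; plant atop ~1 inch soil; spray compound in aqueous acetone (~0.0156-0.500 kg/ha equivalent); maintain in greenhouse with watering; rate visually 0-9 versus control at 4-5 weeks.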
# [5] = test system: SAGPY (Arrowhead (Pygmaea)); experiment: Preemergence weed control under flooded paddy conditions; type: in vivo, Sagittaria pygmaea; conditions: rated 3-4 weeks after treatment
# Procedure, shortened: (§4)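 Greenhouse paddy assay. Acetone/water (50/50 v/v) solutions dosed into flood water, equivalent to about 0.0313 to 0.500 kg/ha active ingredient, over seeds planted 0.5 cm deep in silt loam. Score: 0-9 visual, based on stand, vigor, malformation, size and chlorosis, 3 to 4 weeks after treatment.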
# AMBEL (Ragweed, Common) = experiment: Postemergence herbicidal evaluation; type: in vivo, Ambrosia artemisifolia; conditions: postemergence
# Procedure, shortened: as §1
# [6] = test system: SAGPY (Arrowhead (Pygmaea)); experiment: Postemergence weed control under flooded paddy conditions; type: in vivo, Sagittaria pygmaea; conditions: postemergence weeds, rated 3 to 4 weeks after treatment
# Procedure, shortened: as §2
# [7] = test system: TRZAWR (Wheat, Winter, cv Riband); experiment: Postemergence herbicidal evaluation; type: in vivo, Triticum aestivum; conditions: postemergence
# Procedure, shortened: as §1
# SETVI (Foxtail, Green) [8] = experiment: Preemergence herbicidal evaluation; type: in vivo, Setaria viridis; conditions: rated 4-5 weeks after treatment; for SETVI rating: preemergence, 0-9 scale
# Procedure, shortened: as §3
# CASOB (Sicklepod) = experiment: Preemergence herbicidal evaluation; type: in vivo, Cassia obtusifolia; conditions: rated 4-5 weeks after treatment; for CASOB rating: preemergence, 0-9 scale
# Procedure, shortened: as §3
# MOOVA (Monochoria) = experiment: Preemergence weed control under flooded paddy conditions; type: in vivo, Monochoria vaginalis; conditions: rated 3-4 weeks after treatment
# Procedure, shortened: as §4
# ORYSAT (Rice, Tebonnet) = experiment: Postemergence herbicidal evaluation; type: in vivo, Oryza sativa, (L.) Tebonnet; conditions: postemergence
# Procedure, shortened: as §1
structure (smiles),measurement,setting,value
"CCS(=O)(=O)NC(=O)CC1SC(=Nc2cc(-n3c(=O)cc(C(F)(F)F)n(C)c3=O)c(F)cc2Cl)N(C)C1=O (stereo not drawn) [Compound 105, 2-{{2-Chloro-5-[3,6-dihydro-3-methyl-2,6-dioxo-4-(trifluoromethyl)-1(2H)-pyrimidinyl]-4-fluorophenyl}imino}-N-(ethylsulfonyl)-3-methyl-4-oxo-5-thiazolidineacetamide]",herbicidal rating GLXMAW,[1]; rate 0.0156 kg/ha,3.0
same,herbicidal rating GLXMAW,[1]; rate 0.0313 kg/ha,4.5
same,herbicidal rating GLXMAW,[1]; rate 0.0625 kg/ha,6.5
same,herbicidal rating GLXMAW,[1]; rate 0.1250 kg/ha,7.5
same,Herbicidal rating CYPIR,CYPIR (Rice Flatsedge); Rate 0.0313 kg/ha,5.0
same,Herbicidal rating CYPIR,CYPIR (Rice Flatsedge); Rate 0.0625 kg/ha,7.0
same,Herbicidal rating CYPIR,CYPIR (Rice Flatsedge); Rate 0.1250 kg/ha,7.0
same,Herbicidal rating CYPIR,CYPIR (Rice Flatsedge); Rate 0.2500 kg/ha,9.0
same,herbicidal rating SETVI,"SETVI (Foxtail, Green) [2]; rate 0.0156 kg/ha",0.0
same,herbicidal rating SETVI,"SETVI (Foxtail, Green) [2]; rate 0.0313 kg/ha",0.0
same,herbicidal rating SETVI,"SETVI (Foxtail, Green) [2]; rate 0.0625 kg/ha",2.0
same,herbicidal rating SETVI,"SETVI (Foxtail, Green) [2]; rate 0.1250 kg/ha",5.0
same,herbicidal rating ECHCG,ECHCG (Barnyardgrass); rate 0.0156 kg/ha,0.0
same,herbicidal rating ECHCG,ECHCG (Barnyardgrass); rate 0.0313 kg/ha,0.0
same,herbicidal rating ECHCG,ECHCG (Barnyardgrass); rate 0.0625 kg/ha,0.0
same,herbicidal rating ECHCG,ECHCG (Barnyardgrass); rate 0.1250 kg/ha,3.0
same,herbicidal rating ABUTH,ABUTH (Velvetleaf) [3]; rate 0.0156 kg/ha,4.0
same,herbicidal rating ABUTH,ABUTH (Velvetleaf) [3]; rate 0.0313 kg/ha,4.0
same,herbicidal rating ABUTH,ABUTH (Velvetleaf) [3]; rate 0.0625 kg/ha,4.0
same,herbicidal rating ABUTH,ABUTH (Velvetleaf) [3]; rate 0.1250 kg/ha,9.0
same,ABUTH rating,ABUTH (Velvetleaf) [4]; 0.1250 kg/ha,7.0
same,ABUTH rating,ABUTH (Velvetleaf) [4]; 0.2500 kg/ha,9.0
same,ABUTH rating,ABUTH (Velvetleaf) [4]; 0.5000 kg/ha,9.0
same,SAGPY herbicidal effect rating,[5]; 0.0313 kg/ha,3.0
same,SAGPY herbicidal effect rating,[5]; 0.0625 kg/ha,5.0
same,SAGPY herbicidal effect rating,[5]; 0.1250 kg/ha,5.0
same,SAGPY herbicidal effect rating,[5]; 0.2500 kg/ha,7.0
same,herbicidal rating AMBEL,"AMBEL (Ragweed, Common); rate 0.0156 kg/ha",0.0
same,herbicidal rating AMBEL,"AMBEL (Ragweed, Common); rate 0.0313 kg/ha",0.0
same,herbicidal rating AMBEL,"AMBEL (Ragweed, Common); rate 0.0625 kg/ha",3.0
same,herbicidal rating AMBEL,"AMBEL (Ragweed, Common); rate 0.1250 kg/ha",9.0
same,Herbicidal rating SAGPY,[6]; Rate 0.0313 kg/ha,3.0
same,Herbicidal rating SAGPY,[6]; Rate 0.0625 kg/ha,5.0
same,Herbicidal rating SAGPY,[6]; Rate 0.1250 kg/ha,5.0
same,Herbicidal rating SAGPY,[6]; Rate 0.2500 kg/ha,7.0
same,herbicidal rating TRZAWR,[7]; rate 0.0156 kg/ha,3.5
same,herbicidal rating TRZAWR,[7]; rate 0.0313 kg/ha,3.0
same,herbicidal rating TRZAWR,[7]; rate 0.0625 kg/ha,3.5
same,herbicidal rating TRZAWR,[7]; rate 0.1250 kg/ha,3.5
same,SETVI rating,"SETVI (Foxtail, Green) [8]; 0.1250 kg/ha",0.0
same,SETVI rating,"SETVI (Foxtail, Green) [8]; 0.2500 kg/ha",3.0
same,SETVI rating,"SETVI (Foxtail, Green) [8]; 0.5000 kg/ha",3.0
same,CASOB rating,CASOB (Sicklepod); 0.1250 kg/ha,0.0
same,CASOB rating,CASOB (Sicklepod); 0.2500 kg/ha,0.0
same,CASOB rating,CASOB (Sicklepod); 0.5000 kg/ha,0.0
same,MOOVA herbicidal effect rating,MOOVA (Monochoria); 0.0313 kg/ha,6.0
same,MOOVA herbicidal effect rating,MOOVA (Monochoria); 0.0625 kg/ha,7.0
same,MOOVA herbicidal effect rating,MOOVA (Monochoria); 0.1250 kg/ha,7.0
same,MOOVA herbicidal effect rating,MOOVA (Monochoria); 0.2500 kg/ha,9.0
same,herbicidal rating ORYSAT,"ORYSAT (Rice, Tebonnet); rate 0.0156 kg/ha",0.0
same,herbicidal rating ORYSAT,"ORYSAT (Rice, Tebonnet); rate 0.0313 kg/ha",0.0
same,herbicidal rating ORYSAT,"ORYSAT (Rice, Tebonnet); rate 0.0625 kg/ha",0.0
same,herbicidal rating ORYSAT,"ORYSAT (Rice, Tebonnet); rate 0.1250 kg/ha",2.0
"Cn1c(C(F)(F)F)cc(=O)n(-c2cc(N=C3SCC(=O)N3CC(=O)OCC#N)c(Cl)cc2F)c1=O [Compound 109, 2-{{2-Chloro-5-[3,6-dihydro-3-methyl-2,6-dioxo-4-(trifluoromethyl)-1(2H)-pyrimidinyl]-4-fluorophenyl}imino}-4-oxo-3-thiazolidineacetic acid, ester with glycolonitrile]",herbicidal rating GLXMAW,[1]; rate 0.0158 kg/ha,7.0
same,herbicidal rating GLXMAW,[1]; rate 0.0315 kg/ha,8.0
same,herbicidal rating GLXMAW,[1]; rate 0.0630 kg/ha,8.0
same,Herbicidal rating CYPIR,CYPIR (Rice Flatsedge); Rate 0.0313 kg/ha,0.0
same,Herbicidal rating CYPIR,CYPIR (Rice Flatsedge); Rate 0.0625 kg/ha,2.0
same,Herbicidal rating CYPIR,CYPIR (Rice Flatsedge); Rate 0.1250 kg/ha,4.0
same,Herbicidal rating CYPIR,CYPIR (Rice Flatsedge); Rate 0.2500 kg/ha,7.0
same,herbicidal rating SETVI,"SETVI (Foxtail, Green) [2]; rate 0.0158 kg/ha",6.0
same,herbicidal rating SETVI,"SETVI (Foxtail, Green) [2]; rate 0.0315 kg/ha",7.0
same,herbicidal rating SETVI,"SETVI (Foxtail, Green) [2]; rate 0.0630 kg/ha",9.0
same,herbicidal rating ECHCG,ECHCG (Barnyardgrass); rate 0.0158 kg/ha,0.0
same,herbicidal rating ECHCG,ECHCG (Barnyardgrass); rate 0.0315 kg/ha,3.0
same,herbicidal rating ECHCG,ECHCG (Barnyardgrass); rate 0.0630 kg/ha,3.0
same,herbicidal rating ABUTH,ABUTH (Velvetleaf) [3]; rate 0.0158 kg/ha,9.0
same,herbicidal rating ABUTH,ABUTH (Velvetleaf) [3]; rate 0.0315 kg/ha,9.0
same,herbicidal rating ABUTH,ABUTH (Velvetleaf) [3]; rate 0.0630 kg/ha,9.0
same,Preemergence herbicidal rating ABUTH,ABUTH (Velvetleaf) [4]; rate 0.0156 kg/ha,6.5
same,Preemergence herbicidal rating ABUTH,ABUTH (Velvetleaf) [4]; rate 0.0313 kg/ha,9.0
same,Preemergence herbicidal rating ABUTH,ABUTH (Velvetleaf) [4]; rate 0.0625 kg/ha,9.0
same,Preemergence herbicidal rating ABUTH,ABUTH (Velvetleaf) [4]; rate 0.1250 kg/ha,9.0
same,Preemergence herbicidal rating ABUTH,ABUTH (Velvetleaf) [4]; rate 0.2500 kg/ha,9.0
same,Preemergence herbicidal rating ABUTH,ABUTH (Velvetleaf) [4]; rate 0.5000 kg/ha,9.0
same,SAGPY herbicidal effect rating,[5]; 0.0313 kg/ha,4.5
same,SAGPY herbicidal effect rating,[5]; 0.0625 kg/ha,7.5
same,SAGPY herbicidal effect rating,[5]; 0.1250 kg/ha,9.0
same,SAGPY herbicidal effect rating,[5]; 0.2500 kg/ha,9.0
same,herbicidal rating AMBEL,"AMBEL (Ragweed, Common); rate 0.0158 kg/ha",9.0
same,herbicidal rating AMBEL,"AMBEL (Ragweed, Common); rate 0.0315 kg/ha",9.0
same,herbicidal rating AMBEL,"AMBEL (Ragweed, Common); rate 0.0630 kg/ha",9.0
same,Herbicidal rating SAGPY,[6]; Rate 0.0313 kg/ha,0.0
same,Herbicidal rating SAGPY,[6]; Rate 0.0625 kg/ha,0.0
same,Herbicidal rating SAGPY,[6]; Rate 0.1250 kg/ha,0.0
same,Herbicidal rating SAGPY,[6]; Rate 0.2500 kg/ha,0.0
same,herbicidal rating TRZAWR,[7]; rate 0.0158 kg/ha,3.0
same,herbicidal rating TRZAWR,[7]; rate 0.0315 kg/ha,4.0
same,herbicidal rating TRZAWR,[7]; rate 0.0630 kg/ha,4.5
same,Preemergence herbicidal rating SETVI,"SETVI (Foxtail, Green) [8]; rate 0.0156 kg/ha",5.5
same,Preemergence herbicidal rating SETVI,"SETVI (Foxtail, Green) [8]; rate 0.0313 kg/ha",6.0
same,Preemergence herbicidal rating SETVI,"SETVI (Foxtail, Green) [8]; rate 0.0625 kg/ha",9.0
same,Preemergence herbicidal rating SETVI,"SETVI (Foxtail, Green) [8]; rate 0.1250 kg/ha",9.0
same,Preemergence herbicidal rating SETVI,"SETVI (Foxtail, Green) [8]; rate 0.2500 kg/ha",9.0
same,Preemergence herbicidal rating SETVI,"SETVI (Foxtail, Green) [8]; rate 0.5000 kg/ha",9.0
same,Preemergence herbicidal rating CASOB,CASOB (Sicklepod); rate 0.0156 kg/ha,6.5
same,Preemergence herbicidal rating CASOB,CASOB (Sicklepod); rate 0.0313 kg/ha,4.0
same,Preemergence herbicidal rating CASOB,CASOB (Sicklepod); rate 0.0625 kg/ha,5.5
same,Preemergence herbicidal rating CASOB,CASOB (Sicklepod); rate 0.1250 kg/ha,6.5
same,Preemergence herbicidal rating CASOB,CASOB (Sicklepod); rate 0.2500 kg/ha,9.0
same,Preemergence herbicidal rating CASOB,CASOB (Sicklepod); rate 0.5000 kg/ha,9.0
same,MOOVA herbicidal effect rating,MOOVA (Monochoria); 0.0313 kg/ha,7.0
same,MOOVA herbicidal effect rating,MOOVA (Monochoria); 0.0625 kg/ha,9.0
same,MOOVA herbicidal effect rating,MOOVA (Monochoria); 0.1250 kg/ha,9.0
same,MOOVA herbicidal effect rating,MOOVA (Monochoria); 0.2500 kg/ha,9.0
same,herbicidal rating ORYSAT,"ORYSAT (Rice, Tebonnet); rate 0.0158 kg/ha",3.0
same,herbicidal rating ORYSAT,"ORYSAT (Rice, Tebonnet); rate 0.0315 kg/ha",4.5
same,herbicidal rating ORYSAT,"ORYSAT (Rice, Tebonnet); rate 0.0630 kg/ha",5.0

# — patent US20020137929A1, “1 - (3-heterocyclylphenyl) isothiourea, -isourea, -guanidine and -amidine herbicidal agents” (Intellectual Property Department, BASF Aktiengesellschaft, priority 1998, published 2002)
